Source: patent US4118561A, “7-(Substituted)-7H-pyrrolo[3,2-f]quinazoline-1,3-diamines” (priority 1977, dated 1978)
In brackets after ≈: the same amount, converted by molar mass. Where two headings read alike, the source gives them in different places.

Key:
[1] = tested on: N. catarrhalis 8193; assay: In vitro antibacterial activity (MIC), N. catarrhalis 8193; settings: 18 h
[2] = tested on: Plasmodium berghei KBG 173; assay: Antimalarial blood schizonticidal test in mice; assay type: in vivo, Plasmodium berghei (infected ICR/HA Swiss mice); parameters: ΔMST (increase in mean survival time): unit: days; settings: s.c.
Summary of the method: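 Single s.c. doses (peanut oil vehicle, graded levels) given 72 h after i.p. inoculation of young Swiss mice with P. berghei KBG 173 blood (4 × 10^7 parasitized cells). Activity judged by cures (alive at 60 days) or significant mean survival gain over untreated controls, without drug-related deaths.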

[3] = tested on: Proteus mirabilis 190; assay: In vivo antibacterial synergism (mouse), Proteus mirabilis 190; parameters: species or system Proteus mirabilis (infected mice, CD-1); settings: mice, p.o.; for ED50: Proteus mirabilis, 190, po, 336 h; for PD50 SM/Cpd. (compound part): 0 hours; for PD50 SM/Cpd. (compound part) / CD50 SM/Cpd. (compound part): 20160 min; for CD50 SM/Cpd. (compound part): 6 hours
Method: (§1) The test agents are weighed, suspended in 0.5% aqueous carboxymethyl cellulose, homogenized (glass tissue grinder) and diluted according to the design of the experiment. Mice (male, 18±1 g., CD-1 strain) are pre-weighed, pooled, infected at random intraperitoneally with a 0.5 ml. standardized suspension (LD95 ±5%) of the bacterial organism in 5% gastric mucin and treated at random with single doses of the test agents either at the time of infection or six hours after infecting. The treated groups consist of ten mice per dosage level. Deaths are recorded daily for 14 days and the PD50 (mice are treated at time of infection) and CD50 (mice are treated six hours after infecting) values are calculated by the method of Reed and Muench [Amer. J. Hyg., 27, 493 (1938)].

[4] = tested on: P. vulgaris 6896; assay: In vitro antibacterial activity (MIC), P. vulgaris 6896; settings: Proteus vulgaris, 6896, 18 h
[5] = tested on: E. coli 9637; assay: In vitro antibacterial activity (MIC), E. coli 9637; settings: Escherichia coli, 9637, 18 h
[6] = tested on: S. paratyphi 11737; assay: In vitro antibacterial activity (MIC), S. paratyphi 11737; assay type: cell-based; settings: Salmonella enterica, 18 h
[7] = tested on: lymphocytic leukemia P-388; assay: Activity in mice against lymphocytic leukemia P-388; assay type: in vivo; settings: Mus musculus, P388, ip; mice, I.P., 20 mg/kg; read-out: T/C
[8] = tested on: S. aureus 53-180; assay: In vitro antibacterial activity (MIC), S. aureus 53-180; settings: Staphylococcus aureus, 53180, 18 h
[9] = tested on: S. aureus Smith; assay: In vitro antibacterial activity (MIC), S. aureus Smith; settings: Staphylococcus aureus, 18 h
[10] = tested on: Proteus mirabilis 3; assay: In vivo antibacterial synergism (mouse), Proteus mirabilis 3; parameters: species or system Proteus mirabilis (infected mice, CD-1); settings: mice, p.o.; for PD50 SM/Cpd. (compound part): 0 hours, 20160 min
Method: as §1

[11] = tested on: Proteus vulgaris 347; assay: In vivo antibacterial synergism (mouse), Proteus vulgaris 347; parameters: species or system Proteus vulgaris (infected mice, CD-1); settings: mice, p.o.; for ED50: Proteus vulgaris, 347, po, 336 h; for PD50 SM/Cpd. (compound part): 0 hours; for PD50 SM/Cpd. (compound part) / CD50 SM/Cpd. (compound part): 20160 min; for CD50 SM/Cpd. (compound part): 6 hours
Method: as §1

[12] = tested on: Escherichia coli W-102; assay: In vivo antibacterial synergism (mouse), Escherichia coli W-102; parameters: species or system Escherichia coli (infected mice, CD-1); settings: mice, p.o.; for PD50 SM/Cpd. (compound part): 0 hours; for PD50 SM/Cpd. (compound part) / CD50 SM/Cpd. (compound part): 20160 min; for CD50 SM/Cpd. (compound part): 6 hours
Method: as §1

[13] = treated 0 hours after infecting, read-out: PD50 (agent alone)
[14] = treated 6 hours after infecting, read-out: CD50 (agent alone)

**Q.** How did the MIC [1] turn out when `N#Cc1ccc(Cn2ccc3c4c(N)nc(N)nc4ccc32)cc1` [Example 16, 7-[(4-cyanophenyl)methyl]-7H-pyrrolo[3,2-f]-quinazoline-1,3-diamine] was run?
**A.** 0.0076 µg/mL (≈ 0.0242 µM)

**Q.** And the minimal effective dose ([2]; Plasmodium berghei, sc, 1440 h, single dose, 60-day survivors, read-out: Min. Curing Dose)?
**A.** 5 mg/kg

**Q.** And the “Cure/Treat at Min. Curing Dose” value ([2]; at the Min. Curing Dose, 60-day survivors)?
**A.** 1/5

**Q.** And the “ΔMST (increase in mean survival time)” value ([2]; dose 10 mg. per kg.)?
**A.** 8.4

**Q.** And the ED50 [3, 13]?
**A.** 18.6 mg/kg

**Q.** And the ED50 [3, 14]?
**A.** 159 mg/kg

**Q.** What about the “PD50 SM/Cpd. (compound part)” value ([3]; with SM 0.39 mg. per kg.) of the same molecule?
**A.** > 12.50 mg. per kg.

**Q.** What about the “PD50 SM/Cpd. (compound part)” value ([3]; with SM 0.78 mg. per kg.) of the same molecule?
**A.** 8.78 mg. per kg.

**Q.** And the “PD50 SM/Cpd. (compound part)” value ([3]; with SM 1.56 mg. per kg.)?
**A.** 3.39 mg. per kg.

**Q.** And the “PD50 SM/Cpd. (compound part)” value ([3]; with SM 3.11 mg. per kg.)?
**A.** 2.44 mg. per kg.

**Q.** And the “CD50 SM/Cpd. (compound part)” value ([3]; with SM 0.39 mg. per kg.)?
**A.** > 6.25 mg. per kg.

**Q.** What about the “CD50 SM/Cpd. (compound part)” value ([3]; with SM 0.78 mg. per kg.) of the same molecule?
**A.** > 6.25 mg. per kg.

**Q.** What about the “CD50 SM/Cpd. (compound part)” value ([3]; with SM 1.56 mg. per kg.) of the same molecule?
**A.** 4.0 mg. per kg.

**Q.** And the “CD50 SM/Cpd. (compound part)” value ([3]; with SM 3.11 mg. per kg.)?
**A.** 2.33 mg. per kg.

**Q.** What about the MIC [4] of the same molecule?
**A.** 1.95 µg/mL (≈ 6.2 µM)

**Q.** And the MIC [5]?
**A.** 0.244 µg/mL (≈ 0.776 µM)

**Q.** What about the MIC [6] of the same molecule?
**A.** 0.488 µg/mL (≈ 1.55 µM)

**Q.** What about the response vs control in vivo at 20 mg/kg [7] of the same molecule?
**A.** 138%

**Q.** What about the MIC [8] of the same molecule?
**A.** 0.122 µg/mL (≈ 0.388 µM)

**Q.** What about the MIC [9] of the same molecule?
**A.** 0.244 µg/mL (≈ 0.776 µM)

**Q.** What about the ED50 ([10]; Proteus mirabilis, 3, po, 336 h, treated 0 hours after infecting, read-out: PD50 (agent alone)) of the same molecule?
**A.** 22.7 mg/kg

**Q.** What about the “PD50 SM/Cpd. (compound part)” value ([10]; with SM 0.78 mg. per kg.) of the same molecule?
**A.** 7.11 mg. per kg.

**Q.** And the “PD50 SM/Cpd. (compound part)” value ([10]; with SM 1.56 mg. per kg.)?
**A.** 6.56 mg. per kg.

**Q.** What about the “PD50 SM/Cpd. (compound part)” value ([10]; with SM 3.13 mg. per kg.) of the same molecule?
**A.** 2.28 mg. per kg.

**Q.** What about the “PD50 SM/Cpd. (compound part)” value ([10]; with SM 6.25 mg. per kg.) of the same molecule?
**A.** 2.11 mg. per kg.

**Q.** And the ED50 [11, 13]?
**A.** > 200 mg/kg

**Q.** What about the ED50 [11, 14] of the same molecule?
**A.** > 400 mg/kg

**Q.** What about the “PD50 SM/Cpd. (compound part)” value ([11]; with SM 0.78 mg. per kg.) of the same molecule?
**A.** > 12.5 mg. per kg.

**Q.** What about the “PD50 SM/Cpd. (compound part)” value ([11]; with SM 1.56 mg. per kg.) of the same molecule?
**A.** > 12.5 mg. per kg.

**Q.** What about the “PD50 SM/Cpd. (compound part)” value ([11]; with SM 3.13 mg. per kg.) of the same molecule?
**A.** 9.67 mg. per kg.

**Q.** And the “PD50 SM/Cpd. (compound part)” value ([11]; with SM 6.25 mg. per kg.)?
**A.** 6.25 mg. per kg.

**Q.** What about the “CD50 SM/Cpd. (compound part)” value ([11]; with SM 3.11 mg. per kg.) of the same molecule?
**A.** 7.28 mg. per kg.

**Q.** And the “CD50 SM/Cpd. (compound part)” value ([11]; with SM 6.25 mg. per kg.)?
**A.** 8.83 mg. per kg.

**Q.** What about the “CD50 SM/Cpd. (compound part)” value ([11]; with SM 12.5 mg. per kg.) of the same molecule?
**A.** 4.66 mg. per kg.

**Q.** And the “CD50 SM/Cpd. (compound part)” value ([11]; with SM 25 mg. per kg.)?
**A.** 5.07 mg. per kg.

**Q.** And the ED50 ([12]; Escherichia coli, W102, po, 336 h, treated 0 hours after infecting, read-out: PD50 (agent alone))?
**A.** > 800 mg/kg

**Q.** What about the “PD50 SM/Cpd. (compound part)” value ([12]; with SM 3.13 mg. per kg.) of the same molecule?
**A.** 67.8 mg. per kg.

**Q.** And the “PD50 SM/Cpd. (compound part)” value ([12]; with SM 6.25 mg. per kg.)?
**A.** 53.1 mg. per kg.

**Q.** What about the “PD50 SM/Cpd. (compound part)” value ([12]; with SM 12.5 mg. per kg.) of the same molecule?
**A.** 15.6 mg. per kg.

**Q.** And the “PD50 SM/Cpd. (compound part)” value ([12]; with SM 25.0 mg. per kg.)?
**A.** 15.9 mg. per kg.

**Q.** And the “CD50 SM/Cpd. (compound part)” value ([12]; with SM 12.5 mg. per kg.)?
**A.** 50 mg. per kg.

**Q.** What about the “CD50 SM/Cpd. (compound part)” value ([12]; with SM 25 mg. per kg.) of the same molecule?
**A.** 89 mg. per kg.

**Q.** And the “CD50 SM/Cpd. (compound part)” value ([12]; with SM 50 mg. per kg.)?
**A.** 37 mg. per kg.
